In patent US20260091026A1, “METHODS OF TREATING INFLAMMATORY DISEASES” (INTERLINE THERAPEUTICS, INC., priority 2023, published 2026):
Like-named read-outs stand apart in the source and are kept apart here.

What was measured:
RIPK2 (KD)/XIAP (BIR2) = molecular target: T1, RIPK2 (KD)/XIAP (BIR2) (Homo sapiens, UniProt O43353); assay: RIPK2-XIAP binding competition PPI assay (TR-FRET); details: for Emax: read-out: PPI Amax; for IC50: GST-RIPK2 / His-XIAP (BIR2)-avi, 120 min at 23° C.
T1 construct: made in house; host or cells: baculovirus-infected Sf9 cells
Summary of the method: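 TR-FRET competition between GST-RIPK2 (aa 1-310, 1 nM) and His-XIAP BIR2-avi (aa 152-231, 25 nM), both Sf9-expressed, detected with anti-His-XL665 and anti-GST-Tb in Tris pH 7.5 buffer with MgCl2, DTT and vanadate. Incubation was 120 min at 23 °C; the 665/520 nm ratio was normalized to no inhibitor (0%) and 50 nM GSK583 (−100%).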

[1] = test system: THP1-Dual cells, NF-κB pathway (SEAP); assay: THP-1 Dual cell SEAP assay (L18-MDP stimulated); type: cell-based; details: 10 ng/mL L18-MDP, 20-24 h, SEAP readout, read-out: IFNγ THP1 IC50
Summary of the method: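 About 25,000 THP1-Dual cells per well were preincubated 30 min with serially diluted compound, then stimulated overnight (20-24 h, 37 °C) with 10 ng/mL L18-MDP (final). NF-κB-driven SEAP in supernatant was read with QUANTI-Blue at OD 620-655 nm after 2 h; % inhibition versus DMSO/L18-MDP wells was fitted by non-linear regression to give IC50.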

[2] = 50 nM of GSK583 = -100% activity

T1 sequence (O43353 1-310): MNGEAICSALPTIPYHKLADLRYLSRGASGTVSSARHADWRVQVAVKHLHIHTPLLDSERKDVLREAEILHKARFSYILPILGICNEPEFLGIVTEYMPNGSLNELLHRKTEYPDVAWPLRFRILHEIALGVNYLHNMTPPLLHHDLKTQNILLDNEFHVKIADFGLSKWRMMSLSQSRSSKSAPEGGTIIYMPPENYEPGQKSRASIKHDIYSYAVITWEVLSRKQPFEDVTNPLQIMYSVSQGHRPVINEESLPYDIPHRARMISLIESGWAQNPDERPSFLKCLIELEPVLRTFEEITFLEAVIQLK

`COc1cc2ncc(-c3cc(C(=O)NCc4c5ccccc5nn4C)n(C)n3)n2cc1S(=O)(=O)C(C)(C)C` [Example 16, 3-(6-(tert-butylsulfonyl)-7-methoxyimidazo[1,2-a]pyridin-3-yl)-1-methyl-N-((2-methyl-2H-indazol-3-yl)methyl)-1H-pyrazole-5-carboxamide] was tested, and the Emax (RIPK2 (KD)/XIAP (BIR2); [2]) was 55 to 80%, the IC50 (RIPK2 (KD)/XIAP (BIR2)) was greater than 1000 nM and the IC50 ([1]; Homo sapiens) was greater than 2500 nM.
`COc1cc2ncnc(-c3cc(C(=O)NCc4ccccc4)n(C)n3)c2cc1S(=O)(=O)C(C)(C)C` [Example 191, N-benzyl-3-(6-(tert-butylsulfonyl)-7-methoxyquinazolin-4-yl)-1-methyl-1H-pyrazole-5-carboxamide] was tested, and the Emax (RIPK2 (KD)/XIAP (BIR2); [2]) was no less than 80%, the IC50 (RIPK2 (KD)/XIAP (BIR2)) was 100 to 1000 nM and the IC50 ([1]; Homo sapiens) was greater than 2500 nM.
Work on `COc1cc2ncc(-c3cc(C(=O)NCc4n[nH]c5ccccc45)n(C)n3)n2cc1S(=O)(=O)C(C)(C)C` [Example 14, N-((1H-indazol-3-yl)methyl)-3-(6-(tert-butylsulfonyl)-7-methoxyimidazo[1,2-a]pyridin-3-yl)-1-methyl-1H-pyrazole-5-carboxamide] yielded an Emax (RIPK2 (KD)/XIAP (BIR2); [2]) of no less than 80%, an IC50 (RIPK2 (KD)/XIAP (BIR2)) of less than 10 nM and an IC50 ([1]; Homo sapiens) of 100 to 500 nM.
`COc1cc2ncc(-c3cc(C(=O)NCc4ncccn4)n(C)n3)n2cc1S(=O)(=O)C(C)(C)C` [Example 66, 3-(6-(tert-butylsulfonyl)-7-methoxyimidazo[1,2-a]pyridin-3-yl)-1-methyl-N-(pyrimidin-2-ylmethyl)-1H-pyrazole-5-carboxamide] gave an Emax (RIPK2 (KD)/XIAP (BIR2); [2]) of no less than 80%, an IC50 (RIPK2 (KD)/XIAP (BIR2)) of 100 to 1000 nM and an IC50 ([1]; Homo sapiens) of 500 to 2500 nM.
For `COc1cc2ncc(-c3cc(C(=O)N[C@H](C)c4ncccc4F)n(C4CN(C(=O)OC(C)(C)C)C4)n3)n2cc1S(=O)(=O)C(C)(C)C` [Example 140, tert-butyl (R)-3-(3-(6-(tert-butylsulfonyl)-7-methoxyimidazo[1,2-a]pyridin-3-yl)-5-((1-(3-fluoropyridin-2-yl)ethyl)carbamoyl)-1H-pyrazol-1-yl)azetidine-1-carboxylate], the Emax (RIPK2 (KD)/XIAP (BIR2); [2]) was no less than 80%, the IC50 (RIPK2 (KD)/XIAP (BIR2)) was 10 to 100 nM and the IC50 ([1]; Homo sapiens) was 500 to 2500 nM.
`CCn1nc(-c2cnc3cc(OCCO)c(S(=O)(=O)C(C)(C)C)cn23)cc1C(=O)N[C@@H](C)c1ccn(C)n1` [Example 123, (S)-3-(6-(tert-butylsulfonyl)-7-(2-hydroxyethoxy)imidazo[1,2-a]pyridin-3-yl)-1-ethyl-N-(1-(1-methyl-1H-pyrazol-3-yl)ethyl)-1H-pyrazole-5-carboxamide] showed an Emax (RIPK2 (KD)/XIAP (BIR2); [2]) of no less than 80%, an IC50 (RIPK2 (KD)/XIAP (BIR2)) of 100 to 1000 nM and an IC50 ([1]; Homo sapiens) greater than 2500 nM.
Compound `COc1cc2ncc(-c3cc(C(=O)N[C@@H](C)c4cn(C)cn4)n(C)n3)n2cc1S(=O)(=O)C(C)(C)C` [Example 57, (S)-3-(6-(tert-butylsulfonyl)-7-methoxyimidazo[1,2-a]pyridin-3-yl)-1-methyl-N-(1-(1-methyl-1H-imidazol-4-yl)ethyl)-1H-pyrazole-5-carboxamide] has an Emax (RIPK2 (KD)/XIAP (BIR2); [2]) of no less than 80%, an IC50 (RIPK2 (KD)/XIAP (BIR2)) greater than 1000 nM and an IC50 ([1]; Homo sapiens) greater than 2500 nM.
Work on `CCn1nc(-c2cnc3cc(OCCO)c(S(=O)(=O)C(C)(C)C)cn23)cc1C(=O)N[C@H](C)c1cc(C)ccn1` [Example 134, (R)-3-(6-(tert-butylsulfonyl)-7-(2-hydroxyethoxy)imidazo[1,2-a]pyridin-3-yl)-1-ethyl-N-(1-(4-methylpyridin-2-yl)ethyl)-1H-pyrazole-5-carboxamide] yielded an Emax (RIPK2 (KD)/XIAP (BIR2); [2]) of no less than 80%, an IC50 (RIPK2 (KD)/XIAP (BIR2)) of 10 to 100 nM and an IC50 ([1]; Homo sapiens) of 100 to 500 nM.
In the case of `COc1cc2ncc(-c3cc(C(=O)N[C@@H]4C[C@H]4c4ccccc4)n(C)n3)n2cc1S(=O)(=O)C(C)(C)C` (single isomer, unassigned) [Example 34, trans-(1S,2R) or (1R,2S) 3-(6-(tert-butylsulfonyl)-7-methoxyimidazo[1,2-a]pyridin-3-yl)-1-methyl-N-(2-phenylcyclopropyl)-1H-pyrazole-5-carboxamide], the “PPI Amax” value (RIPK2 (KD)/XIAP (BIR2); [2]) is reported as “A (Amax of ≥80%)”, the IC50 (RIPK2 (KD)/XIAP (BIR2)) is reported as greater than 1000 nM and the IC50 [1] is reported as greater than 2500 nM.
